These results are taken from patent US9529131B2, “Polarizing plate” (NITTO DENKO CORPORATION, priority 2014, dated 2016).

The nature of the first data set: log P value (octanol/water partition coefficient).
Details: not given
`C=CC(=O)OCCCCCCCCCOC(=O)C=C` [LIGHT ACRYLATE 1,9ND-A, 1,9-nonanediol diacrylate]: the log partition coefficient (logP) is 3.68.

Staying with this data set, now noted: shake flask method JIS Z 7260 or ChemDraw Ultra calculation, not stated which.
Turning to `C=CC(=O)OCCCCCCCCCCOC(=O)C=C` [1,10-decanediol diacrylate], the “log P” value was 4.10.

Turning to `CSc1ccc(C(=O)C(C)(C)N2CCOCC2)cc1` [IRGACURE 907, 2-methyl-1-(4-methylthiophenyl)-2-morpholinopropan-1-one], the “log P” value was 2.09.

As to `C=CC(=O)OCCN=C=O` [Karenz AOI], the “log P” value is on record as 1.6.

For the molecule `C=CC(=O)OCC(C)OCC(C)OCC(C)OC(=O)C=C` (stereo not drawn) [TPGDA, tripropylene glycol diacrylate], the “log P” value is 1.68.

As to “bisphenol A-propylene oxide (2 mole) adduct di(meth)acrylate”, the “log P” value is 6.10.
